According to PubChem BioAssay AID330 (DTP/NCI, 2004):
“And” between values parts separate entries of the source, which are not always exact repeats. Equal values may be shown once. Inconclusive results and toxic doses are left out. Rule for the calls: active = survival T/C of 150% or more; inactive = T/C below 125% in these data. Peptide text beside a SMILES is read from it. * marks the point of attachment. Cbz = O=C(OCc1ccccc1)*; Bn = c1ccc(C*)cc1

Tested on: P388 leukemia ip, CD2F1 mice, survival T/C
Assay: NCI In Vivo Anticancer Drug Screen. Data for tumor model P388 Leukemia (intraperitoneal) in CD2F1 (CDF1) mice
Conditions: endpoint: median survival time, higher = longer survival
Summary of the method: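 Mice carrying the transplanted tumor received test compound or vehicle. Survival was recorded in each group, and the value is the treated-group measurement divided by that of the vehicle-treated control group.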

[1] = dose: 50.0 mg/kg/injection, schedule: Q01DX005 (ip), vehicle: Klucel (hydroxypropylcellulose) (HPC)
[2] = dose: 100.0 mg/kg/injection, schedule: Q01DX005 (ip), vehicle: Klucel (hydroxypropylcellulose) (HPC)
[3] = dose: 200.0 mg/kg/injection, schedule: Q01DX005 (ip), vehicle: Klucel (hydroxypropylcellulose) (HPC)
[4] = dose: 50.0 mg/kg/injection, schedule: Q01DX005 (ip), vehicle: saline with Tween-80
[5] = dose: 100.0 mg/kg/injection, schedule: Q01DX005 (ip), vehicle: saline with Tween-80
[6] = dose: 200.0 mg/kg/injection, schedule: Q01DX005 (ip), vehicle: saline with Tween-80
[7] = dose: 60.0 mg/kg/injection, schedule: Q01DX005 (ip), vehicle: saline with Tween-80
[8] = dose: 120.0 mg/kg/injection, schedule: Q01DX005 (ip), vehicle: saline with Tween-80
[9] = dose: 240.0 mg/kg/injection, schedule: Q01DX005 (ip), vehicle: saline with Tween-80
[10] = dose: 50.0 mg/kg/injection, schedule: Q01DX009 (ip), vehicle: saline with Tween-80
[11] = dose: 100.0 mg/kg/injection, schedule: Q01DX009 (ip), vehicle: saline with Tween-80
[12] = dose: 100.0 mg/kg/injection, schedule: Q04DX003 (ip), vehicle: Klucel (hydroxypropylcellulose) (HPC)
[13] = dose: 200.0 mg/kg/injection, schedule: Q04DX003 (ip), vehicle: Klucel (hydroxypropylcellulose) (HPC)
[14] = dose: 400.0 mg/kg/injection, schedule: Q04DX003 (ip), vehicle: Klucel (hydroxypropylcellulose) (HPC)
[15] = dose: 50.0 mg/kg/injection, schedule: Q01DX009 (ip), vehicle: saline
[16] = dose: 12.5 mg/kg/injection, schedule: Q01DX005 (ip), vehicle: saline
[17] = dose: 25.0 mg/kg/injection, schedule: Q01DX005 (ip), vehicle: saline
[18] = dose: 50.0 mg/kg/injection, schedule: Q01DX005 (ip), vehicle: saline
[19] = dose: 100.0 mg/kg/injection, schedule: Q01DX005 (ip), vehicle: saline
[20] = dose: 200.0 mg/kg/injection, schedule: Q01DX005 (ip), vehicle: saline
[21] = dose: 6.25 mg/kg/injection, schedule: Q01DX005 (ip), vehicle: saline
[22] = dose: 50.0 mg/kg/injection, schedule: Q01DX009 (ip), vehicle: Klucel (hydroxypropylcellulose) (HPC)
[23] = dose: 100.0 mg/kg/injection, schedule: Q01DX009 (ip), vehicle: Klucel (hydroxypropylcellulose) (HPC)
[24] = dose: 200.0 mg/kg/injection, schedule: Q01DX009 (ip), vehicle: Klucel (hydroxypropylcellulose) (HPC)
[25] = dose: 25.0 mg/kg/injection, schedule: Q01DX005 (ip), vehicle: Klucel (hydroxypropylcellulose) (HPC)

Measured: T/C

NC(CSSCC(N)C(=O)c1ccccc1)C(=O)c1ccccc1 (configuration not stated)
inactive: [1] 98 % of control | [2] 98 % of control | [3] 105 % of control

N#CCCC1CS1 (configuration not stated)
inactive: dose: 18.75 mg/kg/injection, schedule: Q01DX009 (ip), vehicle: saline with Tween-80 103 % of control | dose: 37.5 mg/kg/injection, schedule: Q01DX009 (ip), vehicle: saline with Tween-80 108 % of control | dose: 75.0 mg/kg/injection, schedule: Q01DX009 (ip), vehicle: saline with Tween-80 109 % of control

NC(=O)C1CCCN(C2OC(COP(=O)(O)OP(=O)(O)OCC3OC(n4cnc5c(=O)[nH]c(N)nc54)C(O)C3O)C(O)C2O)C1 (configuration not stated)
inactive: [4] 100 % of control | [5] 104 % of control | [6] 100 % of control

O=c1[nH]c2cc(Cl)ccc2nc1/C=C(O)/C=C/c1ccccc1
inactive: [7] 98 % of control and 89 % of control | [8] 95 % of control | [9] 89 % of control and 91 % of control

ClCc1nnc2n1-c1ccc(Cl)cc1SC2
inactive: [7] 106 % of control | [8] 107 % of control

OCCn1nc2c(c1-c1ccccn1)CCCc1ccccc1-2
inactive: dose: 100.0 mg/kg/injection, schedule: Q04DX002 (ip), vehicle: gum acacia 104 % of control | dose: 200.0 mg/kg/injection, schedule: Q04DX002 (ip), vehicle: gum acacia 97 % of control | dose: 400.0 mg/kg/injection, schedule: Q04DX002 (ip), vehicle: gum acacia 92 % of control

C/C(=N/NC(=O)Cc1ccccc1)C(=NO)/C(C)=N\NC(=O)Cc1ccccc1
inactive: dose: 100.0 mg/kg/injection, schedule: Q04DX002 (ip), vehicle: saline 101 % of control | dose: 200.0 mg/kg/injection, schedule: Q04DX002 (ip), vehicle: saline 108 % of control | dose: 400.0 mg/kg/injection, schedule: Q04DX002 (ip), vehicle: saline 116 % of control

Oc1c(Cl)cc(Cl)cc1C1CC(c2ccccc2Cl)=NN1c1ccccc1 (configuration not stated)
inactive: [10] 96 % of control | [11] 95 % of control | dose: 200.0 mg/kg/injection, schedule: Q01DX009 (ip), vehicle: saline with Tween-80 97 % of control

O=C1CCCCc2scc(C(=O)O)c2N1
inactive: [12] 104 % of control | [13] 111 % of control | [14] 102 % of control

NC(Cc1cnc[nH]1)C(=O)O (configuration not stated)
inactive: [15] 110 % of control | dose: 100.0 mg/kg/injection, schedule: Q01DX009 (ip), vehicle: saline 107 % of control | dose: 200.0 mg/kg/injection, schedule: Q01DX009 (ip), vehicle: saline 110 % of control

O=C1/C(=C/c2ccc3c(c2)OCO3)SC(=S)N1c1ccc(Cl)c(Cl)c1
inactive: [1] 103 % of control | [2] 100 % of control

CC1CCCC2COCN12 (configuration not stated)
inactive: [16] 105 % of control and 98 % of control | [17] 105 % of control and 106 % of control | [18] 101 % of control and 116 % of control and 118 % of control | [19] 123 % of control and 96 % of control | [20] 115 % of control

CCOc1ccn(C2C=CC(=O)O2)c(=O)n1 (configuration not stated)
inactive: [21] 102 % of control and 105 % of control | [16] 110 % of control and 112 % of control | [17] 111 % of control and 118 % of control | [18] 118 % of control and 120 % of control

COc1c(C)n(C)n(-c2ccccc2)c1=O
inactive: [21] 108 % of control | [16] 98 % of control | [17] 108 % of control | [18] 102 % of control | [19] 105 % of control | [20] 102 % of control

CCOC(=O)c1cc2c(=O)c3c(ccc4ccccc43)oc2n(C)c1=O
inactive: dose: 12.5 mg/kg/injection, schedule: Q01DX005 (ip), vehicle: saline with Tween-80 96 % of control | dose: 25.0 mg/kg/injection, schedule: Q01DX005 (ip), vehicle: saline with Tween-80 94 % of control | [4] 88 % of control

c1onc2c1C1CC3CC(C1)CC2C3
inactive: [22] 96 % of control | [23] 89 % of control | [24] 92 % of control

CC1(C)CC(C)(OC(=O)c2ccccc2Cl)[N+]([O-])=N1 (configuration not stated) (tested in a mixture with another compound)
inactive: dose: 12.5 mg/kg/injection, schedule: Q01DX009 (ip), vehicle: other 99 % of control | dose: 25.0 mg/kg/injection, schedule: Q01DX009 (ip), vehicle: other 98 % of control | dose: 50.0 mg/kg/injection, schedule: Q01DX009 (ip), vehicle: other 93 % of control | dose: 100.0 mg/kg/injection, schedule: Q01DX009 (ip), vehicle: other 94 % of control | dose: 200.0 mg/kg/injection, schedule: Q01DX009 (ip), vehicle: other 100 % of control

NC(=O)C(Cc1ccccc1)NC(=O)C(CSCc1ccccc1)NC(=O)OCc1ccccc1 (configuration not stated) (Cbz-Cys(Bn)-Phe-NH2; configuration not given here)
inactive: dose: 12.5 mg/kg/injection, schedule: Q01DX005 (ip), vehicle: Klucel (hydroxypropylcellulose) (HPC) 103 % of control | [25] 102 % of control | [1] 86 % of control and 91 % of control

O=C(NCCCl)Oc1cccn(C(=O)NCCCl)c1=O
inactive: dose: 12.5 mg/kg/injection, schedule: Q01DX009 (sc), vehicle: saline with Tween-80 106 % of control and 111 % of control | dose: 25.0 mg/kg/injection, schedule: Q01DX009 (ip), vehicle: saline 111 % of control and 113 % of control | dose: 25.0 mg/kg/injection, schedule: Q01DX009 (sc), vehicle: saline with Tween-80 100 % of control and 115 % of control | [15] 112 % of control and 118 % of control | dose: 50.0 mg/kg/injection, schedule: Q01DX009 (sc), vehicle: saline with Tween-80 102 % of control and 115 % of control | dose: 100.0 mg/kg/injection, schedule: Q01DX009 (sc), vehicle: saline with Tween-80 109 % of control and 115 % of control | dose: 200.0 mg/kg/injection, schedule: Q01DX009 (sc), vehicle: saline with Tween-80 111 % of control and 123 % of control | dose: 400.0 mg/kg/injection, schedule: Q01DX009 (sc), vehicle: saline with Tween-80 95 % of control

O=[N+]([O-])c1cc[n+]([O-])c(Cl)c1
inactive: dose: 25.0 mg/kg/injection, schedule: Q01DX009 (ip), vehicle: Klucel (hydroxypropylcellulose) (HPC) 91 % of control | [22] 96 % of control | [23] 94 % of control | [24] 101 % of control

Cc1ccc2c(c1)SP(c1ccccc1)S2 (configuration not stated)
inactive: dose: 100.0 mg/kg/injection, schedule: Q04DX002 (ip), vehicle: saline with Tween-80 103 % of control | dose: 200.0 mg/kg/injection, schedule: Q04DX002 (ip), vehicle: saline with Tween-80 104 % of control | dose: 400.0 mg/kg/injection, schedule: Q04DX002 (ip), vehicle: saline with Tween-80 112 % of control

Cc1cc[n+](C2=C(Nc3c(C)cccc3C)C(=O)c3ccccc3C2=O)cc1
inactive: [7] 102 % of control | [8] 102 % of control | [9] 114 % of control

O=C1C2CC3OC3CC2C(=O)N1CCCCCCN1C(=O)C2CC3OC3CC2C1=O (configuration not stated)
inactive: [1] 91 % of control | [2] 90 % of control | [3] 89 % of control

CS/C(=N/N=C/c1ccc2ccccc2n1)SS/C(=N/N=C\c1ccc2ccccc2n1)SC
inactive: [4] 88 % of control | [5] 91 % of control | [6] 104 % of control

Cc1c/c(=N\O)c2c(=O)c([N+](=O)[O-])coc2n1O
inactive: [22] 100 % of control | [23] 100 % of control | [24] 97 % of control

CC1CN(C(=O)Nc2ccc(Cl)c(Cl)c2)C(=O)O1 (configuration not stated)
inactive: [12] 101 % of control | [13] 99 % of control | [14] 100 % of control

CC1CC2([Si](C)(C)C)C(=O)NC(=O)NC12 (configuration not stated)
inactive: [25] 112 % of control | [1] 103 % of control | [2] 112 % of control | [3] 99 % of control

COc1ccc(C#CC(O)C(F)(F)F)cc1 (configuration not stated)
inactive: dose: 25.0 mg/kg/injection, schedule: Q01DX009 (ip), vehicle: saline with Tween-80 102 % of control | [10] 106 % of control | [11] 107 % of control
